Earlier results, collected in patent US8329435B2, “Methods for improved uptake of biological molecules” (American Symbolic, LLC, priority 2007, dated 2012).

Settings: unmodified glutathione

half-life of glutathione in the blood (blood): around 120 seconds
half-life in the blood stream (blood stream): about a minute and a half
SMILES: N[C@@H](CCC(=O)N[C@@H](CS)C(=O)NCC(=O)O)C(=O)O [glutathione]
